Where two headings read alike, the source gives them in different places.

One series deals with Alternaria solani. The series is described as follows: In vivo preventive test on Alternaria solani (tomato). Particulars: 500 ppm of active ingredient, evaluated 7 days after inoculation. In outline: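 Preventive set-up: Alternaria solani spores, as aqueous suspension, applied to young plants one day after spraying. Spray contained active compound formulated with N,N-dimethylformamide and emulsifier, water-diluted to the desired application rate.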

A further series concerns Pyrenophora teres. In words: In vivo preventive test on Pyrenophora teres (barley). Particulars: 500 ppm of active ingredient, evaluated 7-9 days after inoculation. The gist of the method:
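Preventive test: young barley plants received a water-diluted spray of compound formulated with DMF solvent plus alkylaryl polyglycol ether emulsifier, at the stated rate. Inoculation with an aqueous spore suspension of Pyrenophora teres followed one day after spraying.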

The subject of a further series is Venturia inaequalis. In words: In vivo preventive test on Venturia inaequalis (apple scab). Particulars: 100 ppm of active ingredient, evaluated 10 days after inoculation. As for the experimental part:
(§1) Solvent: 24.5 parts by weight of acetone • 24.5 parts by weight of N,N-dimethylacetamide Emulsifier: 1 part by weight of alkylaryl polyglycol ether To produce a suitable preparation of active compound, 1 part by weight of active compound is mixed with the stated amounts of solvent and emulsifier, and the concentrate is diluted with water to the desired concentration. To test for preventive activity, young plants are sprayed with the preparation of active compound at the stated rate of application.

The test system of a further series is Uromyces appendiculatus. The series is described as follows: In vivo preventive test on Uromyces appendiculatus (beans). Particulars: 100 ppm of active ingredient, evaluated 10 days after inoculation. As for the experimental part:
as §1

The next series has as its system Botrytis cinerea. The series is described as follows: In vivo preventive test on Botrytis cinerea (beans). Particulars: Table L, 500 ppm of active ingredient, lesion size 2 days after inoculation. As for the experimental part: Solvent: 24.5 parts by weight of acetone • 24.5 parts by weight of N,N-dimethylacetamide
Emulsifier: 1 part by weight of alkylaryl polyglycol ether
To produce a suitable preparation of active compound, 1 part by weight of active compound is mixed with the stated amounts of solvent and emulsifier, and the concentrate is diluted with water to the desired concentration.
To test for preventive activity, young plants are sprayed with the preparation of active compound. After the spray coating has dried on, 2 small pieces of agar covered with growth of Botrytis cinerea are placed on each leaf. The inoculated plants are placed in a darkened chamber at 20° C. and a relative atmospheric humidity of 100%.
2 days after the inoculation, the size of the lesions on the leaves is evaluated. 0% means an efficacy which corresponds to that of the untreated control, while an efficacy of 100% means that no disease is observed.

Series [1] has as its system Blumeria graminis fsp. hordei. The series is described as follows: In vivo preventive test on Blumeria graminis (barley). To be noted: 500 ppm of active ingredient, evaluated 7 days after inoculation. As for the experimental part: (§2) Solvent: 49 parts by weight of N,N-dimethylacetamide Emulsifier: 1 part by weight of alkylaryl polyglycol ether To produce a suitable preparation of active compound, 1 part by weight of active compound or active compound combination is mixed with the stated amounts of solvent and emulsifier, and the concentrate is diluted with water to the desired concentration. To test for preventive activity, young plants are sprayed with the preparation of active compound or active compound combination at the stated rate of application. After the spray coating has been dried, the plants are dusted with spores of Blumeria graminis fsp. hordei.

The test system of series [2] is Fusarium nivale (var. majus). The series is described as follows: In vivo preventive test on Fusarium nivale (wheat). To be noted: 500 ppm of active ingredient, evaluated 5 days after inoculation. As for the experimental part:
as §2, with “slightly injured by using a sandblast and afterwards they are sprayed” for “dusted”, “a conidia suspension” for “spores”, “Fusarium nivale (var. majus).” for “Blumeria graminis fsp. hordei.”

The next series relates to Puccinia triticina. The series is described as follows: In vivo preventive test on Puccinia triticina (wheat). Particulars: Table K, 500 ppm of active ingredient, evaluated 8 days after inoculation.
Series [3] has as its system aflatoxines produced by Aspergillus parasiticus. In words: microbe, parasite or virus in culture. It is filed as cell-based.
The next series deals with Aspergillus parasiticus. In words: microbe, parasite or virus in culture. Type of series: cell-based.
Series [4] is described as follows: log P by HPLC on reversed-phase column (EEC Directive 79/831 Annex V.A8). Type of series: physicochemical. The method, then: In table 1, the log P values were determined in accordance with EEC Directive 79/831 Annex V.A8 by HPLC (High Performance Liquid Chromatography) on a reversed-phase column (C18), using the method described below: Temperature: 40° C.; […]

The next series relates to Sphaerotheca fuliginea. In words: In vivo preventive test on Sphaerotheca fuliginea (cucumber). Particulars: 500 ppm of active ingredient, evaluated 7 days after inoculation. In outline:
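Young cucumber plants sprayed with compound (in DMF with alkylarylpolyglycolether emulsifier, diluted in water) at the stated application rate. Inoculated one day later with aqueous Sphaerotheca fuliginea spore suspension. Plants then held in greenhouse at approximately 23° C and approximately 70% relative humidity.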

The test system of the next series is Septoria tritici. The series is described as follows: In vivo preventive test on Septoria tritici (wheat). Particulars: 500 ppm of active ingredient, evaluated 21 days after inoculation. The method, then: as §2, with “sprayed” for “dusted”, “a spore suspension” for “spores”, “Septoria tritici.” for “Blumeria graminis fsp. hordei.”
The next series relates to Leptosphaeria nodorum. In words: In vivo preventive test on Leptosphaeria nodorum (wheat). To be noted: 500 ppm of active ingredient, evaluated 7-9 days after inoculation. The gist of the method: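 Plants were inoculated with aqueous L. nodorum spores one day after a protective spray. The spray contained the compound at the stated rate, as a water-diluted concentrate in N,N-dimethylacetamide plus alkylaryl polyglycol ether emulsifier.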

Take `Cn1nc(C(F)F)c(C(=O)NCC2CCCC(C(F)(F)F)C2)c1Cl` (mixture of isomers) [Example 378]: the Efficacy in the series with Alternaria solani worked out at 100%; in the series with Pyrenophora teres, 100%; in the series on Venturia inaequalis, 100%; in the series on Uromyces appendiculatus, 100%; in the series on Botrytis cinerea, 96%.
As for `CC(C)CC(C)C1CCCCC1NC(=O)c1c(C(F)F)nn(C)c1Cl` (single isomer, unassigned) [Example 335], the Efficacy with Venturia inaequalis came out at 100%; in [1] it was 70%; in series [2], 86%; with Uromyces appendiculatus, 100%; with Puccinia triticina, 100%. Further, the “% Inhibition of Aflatoxin at 50 μM” value in series [3] was 100%. For the same molecule, in the series with Aspergillus parasiticus (50 µM), the “% Inhibition of fungal growth at 50 μM” value is listed as 84%. Besides, the logP in series [4] was determined as 4.96 isomer B.
In the case of `CC(C)CC(C)C1CCCCC1NC(=O)c1c(C(F)F)nn(C)c1F` (single isomer, unassigned) [Example 337], the Efficacy was determined as 100% in the series on Sphaerotheca fuliginea; 100% with Alternaria solani; 100% in the series with Pyrenophora teres; 74% with Venturia inaequalis; 78% in the series with Septoria tritici; 86% in the series with Uromyces appendiculatus. Further, the Efficacy in the series on Puccinia triticina is listed as 70%; in the series with Botrytis cinerea, 93%. Moreover, the logP in series [4] is 4.47 isomer A.
As for `CCCC1CCCCC1NC(=O)c1c(C(F)F)nn(C)c1F` (single isomer, unassigned) [Example 343], the Efficacy with Alternaria solani is 95%; with Pyrenophora teres it was 100%; in the series with Venturia inaequalis it was 97%; with Septoria tritici, 100%; in [1] it was 94%; in series [2] it was 100%. The molecule also displayed an Efficacy with Puccinia triticina of 70%. Besides, in [3], the “% Inhibition of Aflatoxin at 50 μM” value is given as 100%. Also, the “% Inhibition of fungal growth at 50 μM” value in the series with Aspergillus parasiticus (50 µM) is 87%. This molecule gave a logP in series [4] of 3.42 isomer A.
Take `Cn1nc(C(F)F)c(C(=O)NC2CCCCC2CCC(C)(C)C)c1Cl` (single isomer, unassigned) [Example 354]: the Efficacy (in the series with Venturia inaequalis; in series [1]; in series [2]; in the series with Uromyces appendiculatus; in the series on Puccinia triticina) was 100% each time. The logP in [4] came out at 4.73 isomer A.
`Cn1nc(C(F)F)c(C(=O)NC2CCCCC2CCC(C)(C)C)c1Cl` (single isomer, unassigned) [Example 355]: the Efficacy in the series on Venturia inaequalis was 99%; in series [1] it was 80%; in series [2], 100%; in the series on Uromyces appendiculatus it was 100%. Moreover, the logP in series [4] turned out to be 4.95 isomer B.
Consider `CC(N(C(=O)c1c(C(F)F)nn(C)c1F)C1CC1)C(C)(C)Cc1ccc(Cl)cc1Cl` (stereo not shown) [Example 181], for which the Efficacy (with Sphaerotheca fuliginea; in the series with Alternaria solani; in the series with Pyrenophora teres; with Venturia inaequalis; in the series on Septoria tritici; in [1]) was 100% throughout. Also, the Efficacy is on record as 95% with Leptosphaeria nodorum and 78% in the series on Uromyces appendiculatus. In series [4], this molecule gave a logP of 5.14.
With `CC(CCc1c(Cl)cc(Cl)cc1Cl)N(C(=O)c1c(C(F)F)nn(C)c1F)C1CC1` (stereo not shown) [Example 213], the Efficacy with Sphaerotheca fuliginea is reported as 99%; in the series on Alternaria solani, 100%; in the series on Pyrenophora teres it was 100%; in the series with Septoria tritici, 93%; in [1] it was 100%; in series [2] it was 93%. Also, the Efficacy was 95% with Leptosphaeria nodorum, 90% in the series with Puccinia triticina and 86% in the series with Botrytis cinerea. The “% Inhibition of Aflatoxin at 50 μM” value in series [3] is 100%. Also, the “% Inhibition of fungal growth at 50 μM” value in the series on Aspergillus parasiticus is 100%. Besides, in series [4], the logP came to 5.14.
With `CON(C(=O)c1c(C(F)F)nn(C)c1Cl)C(C)CCc1c(Cl)cc(Cl)cc1Cl` (stereo not shown) [Example 218], the Efficacy in the series with Alternaria solani stood at 90%; in the series with Pyrenophora teres, 100%; in the series with Venturia inaequalis, 100%; with Septoria tritici, 86%; in series [2] it was 100%; in the series with Uromyces appendiculatus it was 95%. Further, the logP in [4] is 4.89.
In general, inhibition refers to the percentage by which the read-out fell short of the control. A word on the chromatographic logP: it is lipophilicity estimated from chromatographic retention. For the molecule `Cn1nc(C(F)F)c(C(=O)NC2CCCC2CCC(C)(C)C)c1F` (stereo not shown) [Example 319, 3-(difluoromethyl)-N-[2-(3,3-dimethylbutyl)cyclopentyl]-5-fluoro-1-methyl-1H-pyrazole-4-carboxamide], the Efficacy (in the series with Sphaerotheca fuliginea; in the series with Alternaria solani; in the series on Pyrenophora teres; in the series with Septoria tritici; in series [1]; in [2]) was 100% in each case. The Efficacy with Botrytis cinerea is 73%. Further, the pest or weed control at 500 ppm in the series on Puccinia triticina (Puccinia triticina, 192 h, read-out: Efficacy) amounted to 80%. Further, the inhibition at 50 µM in [3] (Aspergillus parasiticus, 168 h, read-out: % Inhibition of Aflatoxin at 50 μM) stood at 100%; in the series on Aspergillus parasiticus (Aspergillus parasiticus, 168 h, read-out: % Inhibition of fungal growth at 50 μM), 89%. In addition, the chromatographic logP was 4.22 in series [4] (log P (isomer A)), 4.28 in series [4] (log P (isomer B)) and 4.22 in [4] (logP).
With `CCCCCCC1CCCCC1NC(=O)c1c(C(F)F)nn(C)c1F` (stereo not shown) [Example 326], the Efficacy in the series on Septoria tritici is reported as 78%; in [2], 92%; with Puccinia triticina it was 100%. The molecule also came in with a logP in series [4] of 5.07.
`CCCCC1CCCCC1NC(=O)c1c(C(F)F)nn(C)c1Cl` (stereo not shown) [Example 331]: the Efficacy is 100% with Sphaerotheca fuliginea; 100% in the series with Alternaria solani; 95% with Pyrenophora teres; 100% with Venturia inaequalis; 100% in the series on Septoria tritici; 100% in series [1]. Besides, the figures for the Efficacy (in series [2]; in the series with Uromyces appendiculatus; with Puccinia triticina) were 100%, 100% and 90%, respectively. In addition, the “% Inhibition of Aflatoxin at 50 μM” value in series [3] was 99%. Besides, the “% Inhibition of fungal growth at 50 μM” value in the series on Aspergillus parasiticus is listed as 79%. In addition, the logP in series [4] was 4.10.
With `CC(CC(C)(C)C)C1CCCCC1NC(=O)c1c(C(F)F)nn(C)c1Cl` (stereo not shown) [Example 359], the Efficacy with Sphaerotheca fuliginea is given as 100%; with Alternaria solani, 95%; with Pyrenophora teres it was 100%; in the series with Venturia inaequalis, 99%; in the series on Septoria tritici it was 100%; in series [1], 94%. In addition, the Efficacy (in [2]; with Uromyces appendiculatus; with Puccinia triticina) was 100% in each case. In series [3], the “% Inhibition of Aflatoxin at 50 μM” value is recorded as 100%. In addition, the “% Inhibition of fungal growth at 50 μM” value with Aspergillus parasiticus was found to be 90%. The molecule further gave a logP in [4] of 5.28.

The record behind these values is US8999956B2, “N-[(het)arylalkyl)] pyrazole(thio)carboxamides and their heterosubstituted analogues” (Bayer Intellectual Property GmbH, priority 2010, dated 2015).
